Reference: the METLIN SMRT retention time set (Domingo-Almenara et al. 2019)

Assay: gradient 5% acetonitrile 3 min, to 50% in 2 min, to 85% in 15 min, held 3 min, 100 µL/min
Conditions: column: Zorbax Extend-C18 2.1 x 50 mm; eluents: water / acetonitrile, 0.1% formic acid
Procedure, shortened: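 The mobile phases were water and acetonitrile, each with 0.1% formic acid, pumped at 100 μL/min through a Zorbax Extend-C18 column (2.1 × 50 mm, 1.8 μm). Pure standards were injected as mixtures of ~100 molecules and detected by a quadrupole time-of-flight mass spectrometer in positive and negative ionization mode. Retention time came from computationally picked adduct peaks, each inspected by hand.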

| RP-LC retention time [s] | SMILES |
| --- | --- |
| 736 | O=C(Nc1cccc(Cl)c1)Nc1ccc2nc3n(c(=O)c2c1)CCC3 |
| 1000 | COC(=O)c1cc(S(=O)(=O)N2CCCC2C(=O)Nc2ccc(C)cc2Br)cn1C (configuration not stated) |
| 793 | O=C(CCSc1ccccc1)Nc1cc(-c2cccs2)nn1CCO |
| 796 | Cc1ccc2c(c1)C(=O)NC1(CCN(C(=O)Nc3ccc(C)c(C)c3)CC1)N2C |
| 788 | CCNC(=O)N1CCc2c(c(-c3nc(-c4ccc(F)cc4)no3)nn2C)C1 |
| 1190 | CCCN(C(C)=O)c1nc(-c2ccc(C)cc2)cs1 |
| 742 | O=C1CCCN1c1ccc(Cn2nc3ccc(-c4ccc(Cl)cc4)nn3c2=O)cc1 |
| 914 | Cn1nc(-c2nc(-c3ccccc3)no2)c2c1CCN(C(=O)NC1CCCCC1)C2 |
| 809 | CCCc1ccc(S(=O)(=O)N2CCC3(CC2)NCCN=C3NCc2ccccc2)cc1 |
| 664 | CCc1nn2c(CNC(=O)C3CCN(C(C)=O)CC3)c(-c3ccccc3)nc2s1 |
| 998 | CCc1nn2c(CNC(=O)c3cccc(Cl)c3)c(-c3ccccc3)nc2s1 |
| 701 | CCN1C(=O)C2CC3(CCN(C(=O)c4cccs4)CC3)CN2C1=O (configuration not stated) |
| 794 | Cc1ccc(NC(=O)C2CCCN2S(=O)(=O)c2cc3c(cc2C)NC(=O)C(C)O3)cc1 (configuration not stated) |
| 881 | COc1ccc(-c2nnc(N3CCC(C(=O)NC4CCCCCC4)CC3)o2)cc1 |
| 702 | CCNc1nc(C)cc(N2CCN(C(=O)Nc3cc(C)cc(C)c3)CC2)n1 |
| 1070 | O=C(Cc1ccccc1)NCc1nc(-c2cccc(-c3csc(C4CC4)n3)c2)no1 |
| 603 | Cc1nc(CCNS(=O)(=O)c2cccnc2)no1 |
| 956 | O=C(C1CC1)N1CCC(c2noc(-c3ccccc3)n2)C1 (configuration not stated) |
| 589 | CCCN1CCN(C(=O)Cn2ccc3ccc(-c4nnc(C)o4)cc32)CC1 |
| 551 | O=C(NC1CCCCC1)[C@@H]1C[C@@H](O)CN1C1CCN(C(=O)c2ccc(Cn3ccnc3)o2)CC1 |
| 781 | Fc1ccc(OCc2nn3c(-c4cccnc4)nnc3s2)cc1 |
| 674 | CCOC(=O)c1ccc(NC(=O)N2CCC(n3cnc4cccnc43)CC2)cc1 |

| RP-LC retention time [s] | SMILES |
| --- | --- |
| 564 | CN1CCN(C(CNC(=O)Cc2cccc3ccccc23)c2ccsc2)CC1 (configuration not stated) |
| 860 | O=C(Nc1ccccc1)C(=O)c1cn(CC(=O)N2CCOCC2)c2ccccc12 |
| 1160 | CCCC(=O)Nc1nc(-c2ccccc2)c(-c2ccccc2)s1 |
| 999 | COc1ccc(-c2nc(-c3cn(-c4cccc(F)c4)nn3)no2)c(OC)c1 |
| 666 | Cc1nnc(C2CC3(CCN(CCc4ccccc4)CC3)CN2CCc2ccccc2)o1 (configuration not stated) |
| 829 | CC(Cc1ccco1)NC(=O)c1ccc2ccnc(N3CCN(c4ccc(F)cc4)CC3)c2c1 (configuration not stated) |
| 780 | CCOc1ccccc1CNC(=O)C1CCN(Cc2c(C)n(CC)c3ccccc23)CC1 |
| 584 | O=c1[nH]ccc2c(O)cccc12 |
| 569 | CCOc1ccc(C(O)CN2CCN(C3CCCCC3)CC2)cc1 (configuration not stated) |
| 766 | O=C(Cc1c(F)cccc1Cl)N1C[C@@H]2C[C@H]1C[C@@H]2NS(=O)(=O)c1cccs1 |
| 604 | COc1ccc(NC(=O)NCCn2c(C)nc3ccccc32)c(OC)c1 |
| 764 | CCOc1ccc(C(=O)N2C[C@@H]3C[C@H]2C[C@@H]3NS(=O)(=O)c2ccccc2)cc1 |
| 738 | CCCNC(=O)C1CCCN(c2nc3ncn(CC(=O)Nc4ccccc4Cl)c(=O)c3s2)C1 (configuration not stated) |
| 577 | COC(=O)c1c(C)[nH]c(C(=O)N2CCCC(C(=O)NCc3cccnc3)C2)c1C (configuration not stated) |
| 596 | CCNC(=O)NC1CCN(c2ccccc2)C1=O (configuration not stated) |
| 849 | COc1ccc(-n2c(=O)n(C)c(=O)c3cc(C(=O)NCc4ccc(F)cc4)cnc32)cc1 |
| 821 | Cc1ccc(-c2cn3c(CC(=O)Nc4ccc(C#N)cc4)csc3n2)cc1C |
| 940 | O=S(=O)(c1cccc(-c2nnc(-c3ccccc3Br)o2)c1)N1CCOCC1 |
| 917 | CCn1c(=O)sc2cc(S(=O)(=O)N3CCC(C(=O)Nc4ccc(F)cc4)CC3)ccc21 |
| 1070 | O=C(NCC1OCCc2ccccc21)C(=O)Nc1ccc(Br)cc1 (configuration not stated) |
| 796 | O=C(Cn1nc(S(=O)(=O)c2ccccc2)ccc1=O)Nc1ccc2c(c1)OCO2 |
| 1090 | CCc1nc(-c2csc(S(=O)(=O)N3CCCC(C(=O)Nc4cc(C)cc(C)c4)C3)c2)no1 (configuration not stated) |

| RP-LC retention time [s] | SMILES |
| --- | --- |
| 766 | COc1ccc(-c2cn3c(CC(=O)Nc4ccc(F)cc4Cl)csc3n2)cc1OC |
| 988 | Cc1nnc2c(=O)n(CC(=O)NC(C)c3ccccc3)c3cccnc3n12 (configuration not stated) |
| 1130 | COC(=O)c1ccccc1NC(=O)C1CCCN(c2ncnc3onc(-c4ccc(F)cc4)c23)C1 (configuration not stated) |
| 1230 | Cc1cc(C)c(S(=O)(=O)N2CCCC2c2nc(-c3ccccc3)no2)c(C)c1 (configuration not stated) |
| 738 | CCOC(=O)c1nc(NCC2CCN(Cc3ccccc3C)CC2)c2c(C)noc2n1 |
| 575 | Cn1cc(CN2CCn3c(nnc3[C@@H]3C[C@@H](O)CN3Cc3cccnc3)C2)c2ccccc21 |
| 822 | CCOC(=O)c1c(C)[nH]c(C(=O)N2CCC(CC(=O)NCc3ccc(C)cc3)CC2)c1C |
| 800 | CCC(C)Nc1nc(-c2ccc(OC)cc2)nc2ccccc12 (configuration not stated) |
| 811 | Cc1cc(-c2nnc(C3CC3)o2)c(C)n1CC(=O)NCc1ccc(F)cc1F |
| 670 | CCOC(=O)c1[nH]c(C)c(C(=O)N2CCC(CC(=O)NC(C)CC)CC2)c1C (configuration not stated) |
| 749 | CSc1ccc(-c2nc3c(C)cccn3c2Nc2ccc3c(c2)OCCO3)cc1 |
| 878 | CCc1ccc(NC(=O)Cn2c(=O)c(CCC(=O)NCC(C)C)nc3ccccc32)cc1 |
| 963 | Cn1nc(-c2nnc(-c3ccc(F)cc3)o2)c2c1CCN(S(=O)(=O)c1cccc(F)c1)C2 |
| 1060 | O=C(Cn1cccc1-c1nc(-c2ccc3c(c2)OCO3)no1)Nc1cccc(Cl)c1 |
| 668 | Cc1ccc(C)c(NC(=O)C2CCCN(c3cn[nH]c(=O)c3)C2)c1 (configuration not stated) |
| 825 | Cc1cccc(CNC(=O)C2c3ccccc3CC(=O)N2C(C)C)c1 (configuration not stated) |
| 858 | CCN(CC)C(=O)c1ccc2c(c1)N(CC(=O)Nc1cc(C)cc(C)c1)C(=O)CS2 |
| 1050 | COc1cccc(S(=O)(=O)N2CCc3nc(-c4ccccc4)ncc3C2)c1 |
| 1160 | CCOc1ccc(-c2nc(Cc3noc(-c4ccc(C#N)cc4)n3)c(C)o2)cc1 |
| 1170 | COc1ccc(Nc2nc(N3CCN(c4ccccc4OC)CC3)nc3c2C(=O)CCC3)cc1 |
| 1020 | CC(C)(C)c1ccc(C(=O)Nc2cc(-c3ccccn3)no2)cc1 |
| 837 | CCc1nc2cc(N3CCC(C(=O)NC(C)c4ccccc4)CC3)cnc2nc1CC (configuration not stated) |

| RP-LC retention time [s] | SMILES |
| --- | --- |
| 662 | CC#CCOC(=O)c1c(C)nc2sc3c(c2c1N)CCC(O)C3 (configuration not stated) |
| 730 | O=S(=O)(c1ccccc1)N1CCC2(CC1)NCCN=C2NCc1ccc(F)c(Cl)c1 |
| 730 | COc1ccc(OC)c(-n2cc(C(=O)O)c3c2C(C(F)(F)F)CC(=O)N3)c1 (configuration not stated) |
| 529 | Cn1c(CNC(=O)C2CCc3nc(N4CCCC4)ncc3C2)nc2ccccc21 (configuration not stated) |
| 966 | Cn1c(=O)c(N2CCN(C(=O)c3ccc(F)c(Cl)c3)CC2)nc2ccccc21 |
| 890 | CC1(C)c2ccccc2-c2nc3ccccc3cc2C1O (configuration not stated) |
| 772 | CCN(C(=O)Cc1csc2nc(-c3ccc(OC)c(OC)c3)cn12)c1ccccc1 |
| 562 | CCc1cc(C(=O)N2CCN(C3CCN(C)CC3)CC2)nc2cc(-c3ccccn3)nn12 |
| 551 | O=C(CSc1nnc2ccccn12)N1CCOCC1 |
| 948 | CN1C(=O)c2ccccc2Oc2ccc(C(=O)NCc3ccccc3Cl)cc21 |
| 621 | Cn1cc(-c2cc3n(n2)CCC(=O)N3CC(=O)NCCCN2CCCCCC2)c2ccccc21 |
| 1090 | CCCc1ccc(S(=O)(=O)N2CCC(C(=O)NCc3csc(-c4ccccc4)n3)CC2)cc1 |
| 1000 | CCOc1cccc(-c2noc(Cn3c(=O)n(-c4ccc(OC)cc4)c(=O)c4sccc43)n2)c1 |
| 1020 | CCc1nc(-c2cc(S(=O)(=O)N3CCC(C(=O)Nc4cccc(C#N)c4)CC3)c(C)s2)no1 |
| 708 | COc1ccc(CCNC(=O)CSC2CCc3ccccc3NC2=O)cc1OC (configuration not stated) |
| 782 | Cc1ccc(N2C(=O)SC(N(CC(N)=O)c3ccc(C)cc3)C2=O)cc1 (configuration not stated) |
| 759 | Cc1cc(C(=O)N2CCC(c3noc(N)c3C(C)C)CC2)c(C)o1 |
| 614 | O=C(NCC1CCN(c2ncccn2)CC1)C(=O)Nc1ccon1 |
| 594 | O=C(CN1CCCc2nc(C3CC3)ncc2C1=O)NCCCN1CCCC1=O |
| 1000 | Cc1ccc(-c2nc3cnccn3c2Nc2ccc(Cl)cc2)cc1 |

| SMILES | RP-LC retention time [s] |
| --- | --- |
| Cc1ncc2c(n1)C[C@@H]1CC[C@H]2N1C(=O)NCc1ccccc1 | 642 |
